Patent US5525329A, “Inhibition of phosphodiesterase in olfactory mucosa” (priority 1995, dated 1996)
“Also recorded” adds a separate entry of the source. Read-outs that look alike come from different tables or passages of the source. One block for each compound: values may come before it.

What was measured:
cGMP-inhibited PDE = conditions: reported in literature; cited from earlier work
[1] = molecular target: T1, phosphodiesterase, olfactory cilia (Rattus norvegicus, UniProt Q63421); assay: PDE activity in olfactory cilia; type: biochemical
T1 construct: Tissue was prepared either as cilia, using the method of Sklar et al., (1986); from tissue; host or cells: olfactory cilia preparation
T1 sequence (Q63421 whole entry): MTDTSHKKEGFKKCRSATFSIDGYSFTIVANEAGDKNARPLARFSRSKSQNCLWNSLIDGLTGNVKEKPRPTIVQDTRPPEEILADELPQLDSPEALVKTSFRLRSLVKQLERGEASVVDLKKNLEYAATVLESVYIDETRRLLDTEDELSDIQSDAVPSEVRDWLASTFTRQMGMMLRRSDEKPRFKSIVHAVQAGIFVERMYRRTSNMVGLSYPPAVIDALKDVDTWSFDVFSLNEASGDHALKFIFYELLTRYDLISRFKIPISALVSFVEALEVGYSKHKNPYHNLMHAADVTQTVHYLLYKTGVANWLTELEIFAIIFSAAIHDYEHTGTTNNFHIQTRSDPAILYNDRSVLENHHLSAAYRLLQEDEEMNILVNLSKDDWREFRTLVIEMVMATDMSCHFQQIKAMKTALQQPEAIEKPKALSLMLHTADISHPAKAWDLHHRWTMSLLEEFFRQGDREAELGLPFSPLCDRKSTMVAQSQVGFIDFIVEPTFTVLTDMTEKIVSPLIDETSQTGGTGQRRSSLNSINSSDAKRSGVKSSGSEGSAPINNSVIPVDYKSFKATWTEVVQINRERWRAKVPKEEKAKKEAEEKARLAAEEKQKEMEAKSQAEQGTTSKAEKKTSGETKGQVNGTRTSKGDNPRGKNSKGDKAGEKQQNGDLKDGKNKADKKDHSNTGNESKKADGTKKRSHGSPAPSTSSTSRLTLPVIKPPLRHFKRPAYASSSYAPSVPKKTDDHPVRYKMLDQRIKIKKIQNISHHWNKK
Method: (§1) Assays were performed with 100 μM Ca^2+ (hatched bars) or with 100 μM EGTA (solid bars).
(§2) Activity is graphed as a function of total cyclic nucleotides present using olfactory cilia, or mucosa with 1 μM cGMP.
(§3) FIG 4B is a graph of activity, 1 μM cGMP used as substrate: 100 μM EGTA (open circles); 100 μM Ca^2+ (filled circles); 100 μM Ca^2+ in the presence of 200 μM W-7 (filled squares).
(§4) Enzymol. […] Tissue was warmed to 37° C. and 100 μl aliquots containing 1-2 […] protein added to initiate the assay which was conducted for 20 minutes at 37° C. […] For experiments at 100 μM free Ca^2+, the reaction mix included 0.2 mM CaCl2 and 50 nM calmodulin (Sigma) where appropriate. Low Ca^2+ conditions were achieved by addition of 2.0 mM EGTA. Ca^2+ levels were measured against standards using a conductivity meter and Ca^2+ electrode (Biomedical Instrumentation Group, Philadelphia, Pa.). Following incubation, reactions were stopped by boiling for 1.5 minutes and cooling on ice, whereupon 100 μl aliquots of 5'-nucleotidase (10 units/ml in 0.1M Tris pH 8.1) were added and samples incubated for 30 minutes at 37° C. Incubation mixtures were applied to QAE-Sephadex columns pre-equilibrated with 30 mM ammonium formate, with flow through and eluate from two 1 ml washes collected in plastic scintillation vials.

[2] = system: phosphodiesterase, olfactory mucosa; assay: PDE activity in homogenates of olfactory mucosa (turbinates); type: biochemical, rat; conditions: for reduction of PDE activity / inhibition of cAMP hydrolysis / inhibition of cGMP hydrolysis: 10 μM drug; for inhibition of cAMP hydrolysis: 1 μM cAMP, no added Ca^2+
Method: as §1, §4
Subcellular fractions were obtained as described below. Rats were anesthetized with carbon dioxide, decapitated and tissue dissected. Nasal turbinates were dissected intact and consisted of the entire olfactory mucosa, including endothelial tissue, olfactory epithelium, and overlying mucous. […] For fractionation, tissue was first centrifuged at 500×g for 5 minutes in a Sorvall RC 2B superspeed refrigerated centrifuge (DuPont, Wilmington, Del.). The crude particulate (P1) pellet was discarded and the supernatant (S1) centrifuged 20 minutes at 28,000×g. The resultant pellet (P2) was washed in BHB, centrifuged and resuspended in 5 ml BHB, and designated the membrane fraction. The supernatant (S2) was centrifuged 50 minutes at 230,000×g in Beckman L8-M ultracentrifuge (Fullerton, Calif.). The pellet (P3) was washed in BHB, recentrifuged in an ultracentrifuge, and resuspended in 2 ml BHB as the microsomal fraction. The supernatant (S3) was saved as the soluble fraction and visually inspected for absence of cloudiness or lipid droplets. In all cases, protein was assayed by the Bradford method using Coomassie Protein Assay Reagent (Pierce, Rockford, Ill.) and BSA as standard.

[3] = system: high affinity cAMP-selective form of PDE; conditions: reported in literature, cited from earlier work
[4] = system: phosphodiesterase, olfactory cilia; assay: PDE activity in olfactory cilia; type: biochemical, rat
Method: as §1, §2, §3, §4

[5] = molecular target: T1, phosphodiesterase, olfactory cilia; assay: PDE activity in olfactory cilia; type: biochemical; remark: listed apart in the source
[6] = 10 μM drug, presence or absence of Ca^2+
[7] = olfactory mucosa, 1 μM cGMP, 100 μM EGTA

inhibition at 10 µM ([5]; read-out: inhibition of ciliary cAMP PDE): 15 to 20%
inhibition at 10 µM ([1]; 10 μM drug, 1 μM cGMP, presence or absence of Ca^2+, read-out: inhibition of ciliary cGMP PDE): 15 to 20%
inhibition of cAMP hydrolysis ([2]; olfactory mucosa, 100 μM EGTA): 64%
inhibition of cGMP hydrolysis [2, 7]: about 20%
Compound: CCCCn1c(=O)c2c(ncn2CC(C)=O)n(CCCC)c1=O [denbufylline]
selective inhibition of the high affinity cAMP-selective form of PDE [3]: selectively inhibit the high affinity cAMP-selective form of PDE

inhibition of cAMP hydrolysis ([2]; olfactory mucosa, 100 μM EGTA): 49%
Compound: COc1ccc(C2CNC(=O)C2)cc1OC1CCCC1 (stereo not drawn) [rolipram]
selective inhibition of the high affinity cAMP-selective form of PDE [3]: selectively inhibited; also recorded: selectively inhibit the high affinity cAMP-selective form of PDE
inhibition of PDE in cilia [1, 6]: neither rolipram (10 μM) nor Ro20-1724 (10 μM) inhibit PDE
inhibition of cGMP hydrolysis [2, 7]: Neither 10 μM rolipram nor 10 μM Ro20-1724 inhibit cGMP hydrolysis

EC50 ([5]; cilia, 1 μM cAMP, read-out: half maximal stimulation of PDE activity by calmodulin): 10 nM
EC50 ([1]; cilia, 1 μM cGMP, read-out: half maximal stimulation of PDE activity by calmodulin): 10 nM
Compound: calmodulin
effect of calmodulin on stimulation of enzyme activity by Ca^2+ ([2]; mucosal homogenates, 1 μM cAMP or cGMP): further enhances the stimulation of enzyme activity by Ca^2+

The next lines start with the compound.

Compound: CC1CC(=O)NN=C1c1ccc(-n2ccnc2)cc1 (stereo not drawn) [CI 930]
selectivity for cGMP-inhibited PDE (cGMP-inhibited PDE): selective for cGMP-inhibited PDE
inhibition at 10 µM ([1]; 10 μM drug, regardless of assay conditions, read-out: inhibition of PDE in cilia): < 10%
reduction of PDE activity ([2]; 100 μM Ca^2+): about 15%
reduction of PDE activity ([2]; 100 μM EGTA): about 30%

Compound: CCCCOc1cc(CC2CNC(=O)N2)ccc1OC (stereo not drawn) [Ro20-1724]
selective inhibition of the high affinity cAMP-selective form of PDE [3]: selectively inhibit the high affinity cAMP-selective form of PDE
selective inhibition of the high affinity cAMP-selective form of PDE ([3]; listed as Ro 20-1724): selective inhibitor of calcium/calmodulin-independent, high affinity PDE
inhibition of PDE in cilia [1, 6]: neither rolipram (10 μM) nor Ro20-1724 (10 μM) inhibit PDE
inhibition of olfactory PDE in the presence of calcium ([2]; olfactory PDE, presence of calcium): about 15%
inhibition of cAMP hydrolysis ([2]; olfactory mucosa, 100 μM EGTA): 66%
inhibition of cGMP hydrolysis [2, 7]: Neither 10 μM rolipram nor 10 μM Ro20-1724 inhibit cGMP hydrolysis

Compound: NCCCCCCNS(=O)(=O)c1cccc2c(Cl)cccc12 [W-7]
reduction of stimulation by calmodulin ([4]; cilia, 100 μM W-7 (cAMP) or 200 μM W-7 (cGMP), 100 μM Ca^2+): substantially reduces stimulation by calmodulin

Compound: Nc1nc2c(ncn2[C@@H]2O[C@@H]3COP(=O)(O)O[C@H]3[C@H]2O)c(=O)[nH]1 [cGMP]
effect of cGMP on cAMP hydrolysis when Ca^2+ and calmodulin are added ([4]; cilia and olfactory mucosa, Ca^2+ and calmodulin added): diminishes markedly
maximal enhancement of cAMP hydrolysis by cGMP ([4]; cilia, 1 μM cGMP, 10 μM cAMP, 100 μM EGTA): 20-30%
maximal enhancement of cAMP hydrolysis by cGMP ([2]; olfactory mucosa, 1 μM cGMP, 10 μM cAMP, 100 μM EGTA): 20-30%

Compound: Cc1[nH]c(=O)c(C#N)cc1-c1ccncc1 [milrinone]
selectivity for cGMP-inhibited PDE (cGMP-inhibited PDE): selective for cGMP-inhibited PDE
inhibition at 10 µM ([1]; read-out: inhibition of PDE in cilia): < 10%
reduction of PDE activity ([2]; 100 μM Ca^2+): about 15%
reduction of PDE activity ([2]; 100 μM EGTA): about 30%
